Measurements: ChEMBL document CHEMBL1201862, “PubChem BioAssay data set” (2004)
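96-well plates; 48 h exposure; 5 concentrations. Endpoints by linear interpolation between flanking doses. Not reached: highest tested concentration assigned. Abbreviation: GI50, concentration required for 50% inhibition of growth.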 The source made the active and inactive calls. Rule as the data show it: active = GI50 up to about 1.1 µM and inactive = higher.

Key:
Experiment in all cases: DTP human tumour cell line panel, 48 h
SN12C = tested on: SN12C
HCT-116 = tested on: HCT-116
786-0 = tested on: 786-0
MDA-MB-435 = tested on: MDA-MB-435
T47D = tested on: T47D
NCI-H226 = tested on: NCI-H226
SNB-75 = tested on: SNB-75
MDA-N = tested on: MDA-N
KM12 = tested on: KM12
HL-60 = tested on: HL-60
HOP-62 = tested on: HOP-62
EKVX = tested on: EKVX
HCT-15 = tested on: HCT-15
MOLT-4 = tested on: MOLT-4
TK-10 = tested on: TK-10
OVCAR-4 = tested on: OVCAR-4
SK-MEL-28 = tested on: SK-MEL-28
A498 = tested on: A498
UACC-62 = tested on: UACC-62
CAKI-1 = tested on: CAKI-1

SMILES	GI50 (SN12C)	GI50 (HCT-116)	GI50 (786-0)	GI50 (MDA-MB-435)	GI50 (T47D)	GI50 (NCI-H226)	GI50 (SNB-75)	GI50 (MDA-N)	GI50 (KM12)	GI50 (HL-60)	GI50 (HOP-62)	GI50 (EKVX)	GI50 (HCT-15) [µM]	GI50 (MOLT-4)	GI50 (TK-10)	GI50 (OVCAR-4)	GI50 (SK-MEL-28)	GI50 (A498)	GI50 (UACC-62)	GI50 (CAKI-1)
CC(=O)Oc1ccc(-c2cc3ccccc3oc2=O)cc1	> 100 µM (inactive)	> 100 µM (inactive)	> 100 µM (inactive)	> 100 µM (inactive)	52.8 µM (inactive)	> 100 µM (inactive)	56.6 µM (inactive)	> 100 µM (inactive)	18.7 µM (inactive)	24.8 µM (inactive)	> 100 µM (inactive)	61.1 µM (inactive)	> 100	45.6 µM (inactive)	> 100 µM (inactive)	> 100 µM (inactive)	> 100 µM (inactive)	38.9 µM (inactive)		
CN(C)CCNC1=C(Cl)C(=O)c2c(O)ccc(O)c2C1=O	1.89 µM (inactive)	1.91 µM (inactive)	2.08 µM (inactive)	1.71 µM (inactive)	2.08 µM (inactive)	23.6 µM (inactive)	2.99 µM (inactive)	2.59 µM (inactive)	1.82 µM (inactive)	2.38 µM (inactive)	1.95 µM (inactive)	2.97 µM (inactive)	2.51	2.88 µM (inactive)	2.33 µM (inactive)	1.87 µM (inactive)	2.12 µM (inactive)	3.39 µM (inactive)	1.85 µM (inactive)	
O=C1C(Cl)=C(NCCN2CCOCC2)C(=O)c2c(O)ccc(O)c21	1.79 µM (inactive)	1.55 µM (inactive)	2.01 µM (inactive)	1.64 µM (inactive)	1.99 µM (inactive)	9.95 µM (inactive)	1.71 µM (inactive)	1.9 µM (inactive)	3.23 µM (inactive)		1.92 µM (inactive)	4.9 µM (inactive)	1.72	1.54 µM (inactive)	8.85 µM (inactive)	1.72 µM (inactive)	1.48 µM (inactive)	6.62 µM (inactive)	1.48 µM (inactive)	1.74 µM (inactive)
CC(C)CN1CN(c2ccccc2)C2(CCN(CC(C)(c3ccc(F)cc3)C3OCCO3)CC2)C1=O (stereo unspecified)	5.75 µM (inactive)	4.51 µM (inactive)	3.12 µM (inactive)	6.62 µM (inactive)	2.75 µM (inactive)	11.1 µM (inactive)	7.33 µM (inactive)	6.84 µM (inactive)	3.72 µM (inactive)	2.68 µM (inactive)	3.45 µM (inactive)	6.01 µM (inactive)	3.27	2.4 µM (inactive)	10.8 µM (inactive)	5.6 µM (inactive)	3.18 µM (inactive)		6.92 µM (inactive)	12.1 µM (inactive)
COc1ccc2c(c1)-c1nc(=S)n(CCN(C)C)c3ccc([N+](=O)[O-])c(c13)N2	0.638 µM (active)	0.247 µM (active)	0.462 µM (active)	2.1 µM (inactive)	4.81 µM (inactive)	0.973 µM (active)	1.3 µM (inactive)	0.948 µM (active)	0.971 µM (active)		0.594 µM (active)	1.97 µM (inactive)	0.731	0.15 µM (active)	1.07 µM (active)	2.36 µM (inactive)	1.44 µM (inactive)	8.13 µM (inactive)	10.6 µM (inactive)	1.49 µM (inactive)
COC(=O)C1=C(OC(=O)c2ccccc2)C(C(=O)OC)[C@]2(O)[C@@H](C(=O)OC)[C@H]1C[C@@H](c1ccccc1)[C@@H]2C(=O)OC (stereo partly specified)	8.43 µM (inactive)	3.96 µM (inactive)	16.4 µM (inactive)	2.45 µM (inactive)	6.52 µM (inactive)	2.56 µM (inactive)		1.95 µM (inactive)	8.63 µM (inactive)	2.02 µM (inactive)	13.2 µM (inactive)	34 µM (inactive)	7.82	3.64 µM (inactive)	17.3 µM (inactive)	10.6 µM (inactive)	12.2 µM (inactive)	16.3 µM (inactive)	11.6 µM (inactive)	14.2 µM (inactive)
Cc1c2ccccc2c(C)n2c1nc1cc3ccccc3cc12	1.79 µM (inactive)	1.37 µM (inactive)	0.955 µM (active)	1.61 µM (inactive)	6.44 µM (inactive)		1.57 µM (inactive)	1.47 µM (inactive)	1.32 µM (inactive)	2.5 µM (inactive)	1.34 µM (inactive)	1.64 µM (inactive)	1.36	1.32 µM (inactive)	2.15 µM (inactive)	1.56 µM (inactive)	1.46 µM (inactive)		1.49 µM (inactive)	1.24 µM (inactive)
CN(c1ccccc1)S(=O)(=O)c1ccccc1[N+](=O)[O-]	> 100 µM (inactive)	97.5 µM (inactive)	> 100 µM (inactive)	71.9 µM (inactive)	62.5 µM (inactive)	> 100 µM (inactive)	96.6 µM (inactive)	> 100 µM (inactive)	> 100 µM (inactive)	> 100 µM (inactive)	> 100 µM (inactive)	> 100 µM (inactive)	> 100	26.2 µM (inactive)	> 100 µM (inactive)	98.4 µM (inactive)	> 100 µM (inactive)		> 100 µM (inactive)	> 100 µM (inactive)
CCOC(=O)C(NC(=O)c1ccccc1)(Nc1ccc(S(=O)(=O)Nc2cc(C)on2)cc1)C(F)(F)F (stereo unspecified)	> 100 µM (inactive)	> 100 µM (inactive)	> 100 µM (inactive)	> 100 µM (inactive)	> 100 µM (inactive)	> 100 µM (inactive)	> 100 µM (inactive)	> 100 µM (inactive)	> 100 µM (inactive)	> 100 µM (inactive)	> 100 µM (inactive)	> 100 µM (inactive)	> 100	> 100 µM (inactive)	56.1 µM (inactive)	> 10 µM (inactive)	> 100 µM (inactive)		> 100 µM (inactive)	> 100 µM (inactive)
CCCCCC(=O)OCC(=O)[C@H]1[C@H](C)C[C@H]2[C@@H]3C[C@H](F)C4=C/C(=N/OC(=O)c5cccc6c(=O)c7ccccc7[nH]c56)C=C[C@]4(C)[C@H]3[C@@H](O)C[C@@]21C	20 µM (inactive)	26.4 µM (inactive)	48.3 µM (inactive)	23.8 µM (inactive)	19 µM (inactive)	4.78 µM (inactive)	19.1 µM (inactive)	28.3 µM (inactive)	10.7 µM (inactive)	> 100 µM (inactive)	33.4 µM (inactive)	25.5 µM (inactive)	26.6	17.8 µM (inactive)	26.2 µM (inactive)	27.4 µM (inactive)			16.7 µM (inactive)	41.8 µM (inactive)
O=C1C2CCCCC2C(=O)N1n1c(-c2ccccc2)n[nH]c1=O (stereo unspecified)	> 100 µM (inactive)	> 100 µM (inactive)	> 100 µM (inactive)	> 100 µM (inactive)	> 100 µM (inactive)	> 100 µM (inactive)	> 100 µM (inactive)	> 100 µM (inactive)	> 100 µM (inactive)		> 100 µM (inactive)	> 100 µM (inactive)	> 100	> 100 µM (inactive)	> 100 µM (inactive)	> 100 µM (inactive)		> 100 µM (inactive)	> 100 µM (inactive)	> 100 µM (inactive)
N#CCCN(CCC#N)c1ccc(C(=N/c2ccc(F)cc2)/N=N/c2ccccc2)cc1	> 100 µM (inactive)	> 100 µM (inactive)	> 100 µM (inactive)	> 100 µM (inactive)	15.1 µM (inactive)	> 100 µM (inactive)	57.5 µM (inactive)	> 100 µM (inactive)	35.5 µM (inactive)		> 100 µM (inactive)	> 100 µM (inactive)	> 100	> 100 µM (inactive)	> 100 µM (inactive)	93.5 µM (inactive)	> 100 µM (inactive)	> 100 µM (inactive)	> 100 µM (inactive)	> 100 µM (inactive)
OC1NC2CC3NC(O)C(O)NC3CC2NC1O (stereo unspecified)	> 100 µM (inactive)	> 100 µM (inactive)	> 100 µM (inactive)	> 100 µM (inactive)	> 100 µM (inactive)	> 100 µM (inactive)	> 100 µM (inactive)	> 100 µM (inactive)	> 100 µM (inactive)	> 100 µM (inactive)	> 100 µM (inactive)	> 100 µM (inactive)	> 100	> 100 µM (inactive)	> 100 µM (inactive)	> 100 µM (inactive)	> 100 µM (inactive)		> 100 µM (inactive)	> 100 µM (inactive)
Cc1nc2c(=O)n(C)ncc2[nH]1	> 100 µM (inactive)	> 100 µM (inactive)	> 100 µM (inactive)	> 100 µM (inactive)	> 100 µM (inactive)	> 100 µM (inactive)	22.6 µM (inactive)	> 100 µM (inactive)	> 100 µM (inactive)	33.4 µM (inactive)	> 100 µM (inactive)	> 100 µM (inactive)	> 100	> 100 µM (inactive)	> 100 µM (inactive)		> 100 µM (inactive)	> 100 µM (inactive)	> 100 µM (inactive)	> 100 µM (inactive)
CN(C)/C=C(\C(=O)c1ccccc1)n1nc(-c2ccccc2)cc1-c1ccccc1	> 10 µM (inactive)	> 10 µM (inactive)	> 10 µM (inactive)	> 10 µM (inactive)	> 10 µM (inactive)	> 10 µM (inactive)		> 10 µM (inactive)	> 10 µM (inactive)	> 10 µM (inactive)	> 10 µM (inactive)	> 10 µM (inactive)	> 10	> 10 µM (inactive)	> 10 µM (inactive)	> 10 µM (inactive)	> 10 µM (inactive)	> 10 µM (inactive)	> 10 µM (inactive)	> 10 µM (inactive)
